Values after ≈ are worked out from the molar mass of the structure shown.
Experiments:
[1] = test system: MGC 803 (human gastric cancer cell); assay: Solid tumor cell growth inhibition, MTT, 72 h (Example 7); type: cell-based; details: Homo sapiens
Outline: (§1)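 MTT read-out of viable cells after 72 h compound treatment, reported as percent viability versus untreated control (100%). Cells seeded at 4000 per well, grown 24 h beforehand in 10% FBS DMEM high glucose, 37 °C, 5% CO2.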

[2] = test system: Huh7 (human liver cancer cell); assay: as above; type: cell-based; details: Homo sapiens; 72 h, MTT, Huh-7
Outline: as §1

[3] = test system: RKO (human colon adenocarcinoma cell); assay: as above; type: cell-based; details: Homo sapiens; 72 h, MTT, RKO
Outline: as §1

[4] = test system: Becap37 (human breast cancer cell); assay: as above; type: cell-based; details: Homo sapiens; 72 h, MTT, Becap-37
Outline: as §1

A549 (human lung cancer) = assay: as above; type: cell-based; details: Homo sapiens; 72 h, MTT, A549
Outline: as §1

[5] = test system: PANC-1 (pancreatic cancer); assay: as above; type: cell-based, human; details: Homo sapiens; 72 h, MTT, PANC-1
Outline: as §1

PC-3 (prostate cancer) = assay: as above; type: cell-based, human; details: Homo sapiens; 72 h, MTT, PC-3
Outline: as §1

[6] = test system: CaES-17 (esophageal cancer cell); assay: as above; type: cell-based, human; details: Homo sapiens, CaEs17; 72 h, MTT, CAES-17
Outline: as §1

MG63 (osteosarcoma) = assay: as above; type: cell-based, human; details: Homo sapiens; 72 h, MTT, MG-63
Outline: as §1

[7] = test system: RPMI8226 (multiple myeloma); assay: Multiple myeloma cell growth inhibition, MTT, 72 h (Example 6); type: cell-based, human; details: Homo sapiens, RPMI-8226; 72 h, MTT, RPMI8226
Outline: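 Viability was read by MTT after 72 h of compound exposure at 37 °C, 5% CO2. Each well held 6000 RPMI8226 cells in 1640 medium containing 10% fetal bovine serum, with derivatives added at various concentrations.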

[8] = test system: Jurkat (acute lymphoblastic leukemia, ALL); assay: Leukemia cell growth inhibition, MTT, 72 h (Example 5); type: cell-based, human; details: Homo sapiens, Jurkat; 72 h, MTT
Outline: (§2)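 Seed 6000 leukemia cells per well in 1640 medium containing 10% FBS. Add test compounds at different concentrations, mix, incubate 72 hours at 37° C in 5% CO2. Determine viable cells by MTT.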

[9] = test system: K562/adr (drug-resistant, chronic myeloid leukemia, CML); assay: as above; type: cell-based, human; details: Homo sapiens, K562/Adr; 72 h, MTT
Outline: as §2

[10] = test system: NB4 (acute promyelocytic leukemia, AML); assay: as above; type: cell-based, human; details: Homo sapiens; 72 h, MTT
Outline: as §2

[11] = test system: H9 (acute lymphoblastic leukemia, ALL); assay: as above; type: cell-based, human; details: Homo sapiens; 72 h, MTT
Outline: as §2

[12] = test system: Kasumi-1 (acute myeloid leukemia M2 type, AML-M2); assay: as above; type: cell-based, human; details: Homo sapiens, Kasumi 1
Outline: as §2

| SMILES | IC50 [1] [µg/mL] | IC90 [1] [µg/mL] | IC50 [2] [µg/mL] | IC90 [2] [µg/mL] | IC50 [3] [µg/mL] | IC90 [3] [µg/mL] | IC50 [4] [µg/mL] | IC90 [4] [µg/mL] | IC50 (A549 (human lung cancer)) [µg/mL] | IC90 (A549 (human lung cancer)) [µg/mL] | IC50 [5] [µg/mL] | IC90 [5] [µg/mL] | IC50 (PC-3 (prostate cancer)) [µg/mL] | IC90 (PC-3 (prostate cancer)) [µg/mL] | IC50 [6] [µg/mL] | IC90 [6] [µg/mL] | IC50 (MG63 (osteosarcoma)) [µg/mL] | IC90 (MG63 (osteosarcoma)) [µg/mL] | IC50 [7] [µg/mL] | IC90 [7] [µg/mL] | also measured |
| --- | --- | --- | --- | --- | --- | --- | --- | --- | --- | --- | --- | --- | --- | --- | --- | --- | --- | --- | --- | --- | --- |
| COc1ccc2cc1Oc1ccc(cc1)C[C@H]1c3cc(c(OC)cc3CCN1C)Oc1c(OC)c(OC)c(CN3CCC(O)CC3)c3c1[C@H](C2)N(C)CC3 [BS-TE-308] | 4.44 (≈ 6.03 µM) | 23 (≈ 31.3 µM) | 3.1 (≈ 4.21 µM) | 4.95 (≈ 6.73 µM) | 1.77 (≈ 2.41 µM) | 4.03 (≈ 5.48 µM) | 4.76 (≈ 6.47 µM) | 11.5 (≈ 15.6 µM) | 2.79 (≈ 3.79 µM) | 11.2 (≈ 15.2 µM) | 6.54 (≈ 8.89 µM) | 14.7 (≈ 19.9 µM) | 5.39 (≈ 7.32 µM) | 8.99 (≈ 12.2 µM) | 3.43 (≈ 4.66 µM) | 27.4 (≈ 37.3 µM) | 1.38 (≈ 1.88 µM) | 4.84 (≈ 6.58 µM) | 0.28 (≈ 0.38 µM) | 0.76 (≈ 1.03 µM) | IC50 [8]: 3.91 µg/mL (≈ 5.31 µM); IC90 [8]: 12.7 µg/mL (≈ 17.3 µM); IC50 [9]: 3.54 µg/mL (≈ 4.81 µM); IC90 [9]: 12.4 µg/mL (≈ 16.8 µM); IC50 [10]: 1.43 µg/mL (≈ 1.94 µM); IC90 [10]: 6.61 µg/mL (≈ 8.98 µM); IC50 [11]: 1.7 µg/mL (≈ 2.31 µM); IC90 [11]: 4.68 µg/mL (≈ 6.36 µM); IC50 [12]: 1.76 µg/mL (≈ 2.39 µM); IC90 [12]: 8.69 µg/mL (≈ 11.8 µM) |
| COc1ccc2cc1Oc1ccc(cc1)C[C@H]1c3cc(c(OC)cc3CCN1C)Oc1c(OC)c(OC)c(CNC(C)C)c3c1[C@H](C2)N(C)CC3 [BS-TE-311] | 3.17 (≈ 4.57 µM) | 11.8 (≈ 17 µM) | 3.5 (≈ 5.04 µM) | 4.9 (≈ 7.06 µM) | 1.96 (≈ 2.82 µM) | 4.25 (≈ 6.12 µM) | 2.5 (≈ 3.6 µM) | 7.86 (≈ 11.3 µM) | 1.89 (≈ 2.72 µM) | 9.07 (≈ 13.1 µM) | 6.31 (≈ 9.09 µM) | 13.2 (≈ 19 µM) | 6.04 (≈ 8.7 µM) | 8 (≈ 11.5 µM) | 4.05 (≈ 5.84 µM) | 25.6 (≈ 36.9 µM) | 1.89 (≈ 2.72 µM) | 4 (≈ 5.76 µM) | 0.18 (≈ 0.259 µM) | 1.74 (≈ 2.51 µM) | IC50 [8]: 3.15 µg/mL (≈ 4.54 µM); IC90 [8]: 9.19 µg/mL (≈ 13.2 µM); IC50 [9]: 1.97 µg/mL (≈ 2.84 µM); IC90 [9]: 12 µg/mL (≈ 17.3 µM); IC50 [10]: 0.83 µg/mL (≈ 1.2 µM); IC90 [10]: 4 µg/mL (≈ 5.76 µM); IC50 [11]: 2.29 µg/mL (≈ 3.3 µM); IC90 [11]: 3.99 µg/mL (≈ 5.75 µM); IC50 [12]: 1.33 µg/mL (≈ 1.92 µM); IC90 [12]: 5.63 µg/mL (≈ 8.11 µM) |
| COc1ccc2cc1Oc1ccc(cc1)C[C@H]1c3cc(c(OC)cc3CCN1C)Oc1c(OC)c(OC)c(CNCC(C)O)c3c1[C@H](C2)N(C)CC3 (stereo partly drawn) [BS-TE-315] | 3.63 (≈ 5.11 µM) | 10.5 (≈ 14.7 µM) | 3.07 (≈ 4.32 µM) | 4.98 (≈ 7.02 µM) | 1.64 (≈ 2.31 µM) | 3.39 (≈ 4.78 µM) | 2.95 (≈ 4.16 µM) | 9.79 (≈ 13.8 µM) | 1.96 (≈ 2.76 µM) | 9.36 (≈ 13.2 µM) | 5.89 (≈ 8.3 µM) | 14.7 (≈ 20.7 µM) | 6.41 (≈ 9.03 µM) | 8 (≈ 11.3 µM) | 2.4 (≈ 3.38 µM) | 20.8 (≈ 29.4 µM) | 1.41 (≈ 1.99 µM) | 3.11 (≈ 4.38 µM) | 0.3 (≈ 0.423 µM) | 2.07 (≈ 2.92 µM) | IC50 [8]: 4.53 µg/mL (≈ 6.38 µM); IC90 [8]: 11 µg/mL (≈ 15.6 µM); IC50 [9]: 4.78 µg/mL (≈ 6.73 µM); IC90 [9]: 10.4 µg/mL (≈ 14.7 µM); IC50 [10]: 1.63 µg/mL (≈ 2.3 µM); IC90 [10]: 5.66 µg/mL (≈ 7.97 µM); IC50 [11]: 2.6 µg/mL (≈ 3.66 µM); IC90 [11]: 4.83 µg/mL (≈ 6.8 µM); IC50 [12]: 1.99 µg/mL (≈ 2.8 µM); IC90 [12]: 7.72 µg/mL (≈ 10.9 µM) |

From patent US9133207B2, “Tetrandrine derivatives with substituted 5-carbon, preparation method and use thereof” (Hangzhou Bensheng Pharmaceutical Co., Ltd., priority 2011, dated 2015)
